{"source": "patent US12337003B2", "about": "“Pharmaceutical compositions for combination therapy” (Intercept Pharmaceuticals, Inc., priority 2015, dated 2025)", "test_system": "leukocyte extravasation signaling", "assay": "Hepatic gene expression profiling (RNA sequencing, pathway analysis) in APOE*3Leiden.CETP mice", "assay_type": "in vivo", "protocol": "This experiment was performed to evaluate the effects of OCA and fenofibrate, alone or in combination, on the development of diet induced NASH and liver fibrosis in APOE*3Leiden.CETP transgenic mice. Hepatic gene expression profiling and subsequent pathway analysis were performed to determine whether the combination regulates novel genes not regulated by either monotherapy treatment, and/or more strongly regulates genes also impacted by the monotherapy.\nMice were fed a high fat chow (HFC) diet for […]. After 15 weeks on the HFC diet, HFC mice were matched into 7 groups based on age, body weight, plasma cholesterol and triglycerides after 4 h fasting. Mice were treated with of OCA and fenofibrate, alone or in combination beginning at week 15 and sacrificed at week 25 in an unfasted state. One week before sacrifice, mice were labeled with D20, by i.p. injection of a bolus of D20 and subsequent addition of 4% D20 to the drinking water. Plasma (EDTA) was obtained by heart puncture and stored at −70° C. The liver was weighed and 4 pieces of liver were isolated: 1 piece (medial lobe) was fixed in 10% formalin (for NASH and fibrosis histology) and 3 pieces (sinister lobe) were snap-frozen in liquid N2 and stored individually at −70° C.\nNucleic acid extraction was performed as described previously in detail (Verschuren et al., 2014). Briefly, total RNA was extracted from individual liver samples using glass beads and RNAzol (Campro Scientific, Veenendaal, The Netherlands). RNA concentration and quality was determined using the Fragment Analyzer (Advanced Analytical Technologies, USA) and the RNA 6000 Nano Lab-on-a-Chip kit and a Bioanalyzer 2100 (Agilent Technologies, Amstelveen, The Netherlands). All samples met the quality requirements and were used in the RNA sequencing procedure.\nThe NEBNext Ultra Directional RNA library Prep Kit for Illumina was used to process the samples. The sample preparation was performed according to the protocol “NEBNext Ultra Directional RNA Library Prep Kit for Illumina” (NEB #E7420S/L). Briefly, mRNA was isolated from total RNA using oligo-dT magnetic beads. After fragmentation of the mRNA, a cDNA synthesis was performed. This was used for ligation of sequencing adapters and PCR amplification of the resulting product. The quality and yield after sample preparation was measured with the Fragment Analyzer (Advanced Analytical Technologies, USA). The size of the resulting products was consistent with the expected size distribution (a broad peak between 300-500 bp).\nClustering and DNA sequencing using the Illumina […] was performed according manufacturer's protocols. Data was generated using single-end read sequencing protocol obtaining approx. 15 million reads per sample and 75 bp per read. Image analysis, base calling, and quality check was performed with the Illumina data analysis pipeline RTA v2.4.11 to generate the raw data (*.fastq-files).\nThe reads were mapped to the reference sequence Mus musculus GRCm38.p3 using a short read aligner based on Burrows-Wheeler Transform. The default mismatch rate of 2% (3 mismatches in a read of 150 bases) was used. Based on the mapped read locations in the alignment files (*.bam-files) the frequency of how often a read was mapped on a transcript was determined. The counts were saved to count-files, which served as input for downstream mRNA-seq differential expression analysis. The read counts were loaded into the DESeq package, a statistical package within the R platform. […]"}
{"smiles": "CC[C@H]1[C@@H](O)[C@@H]2[C@H](CC[C@]3(C)[C@@H]([C@H](C)CCC(=O)O)CC[C@@H]23)[C@@]2(C)CC[C@@H](O)C[C@@H]12", "note": "[OCA, 3α,7α-dihydroxy-6α-ethyl-5β-cholan-24-oic acid]", "values": [{"measurement": "number of uniquely regulated genes", "setting": "Venn diagram, OCA 10 mg/kg, fenofibrate 10 mg/kg, combination", "result": 109}, {"measurement": "enrichment analysis of canonical (inflammatory) pathways", "setting": "liver mRNA, OCA 10 mg/kg and/or low dose fenofibrate vs HFC", "result": "regulated several inflammatory processes"}, {"measurement": "regulation of genes of leukocyte extravasation signaling (leukocyte and endothelial cells)", "setting": "liver mRNA, OCA and/or low dose fenofibrate, relative to vehicle group", "result": "downregulates numerous genes"}]}
